Entries after “also recorded” stand apart in the source; their conditions may differ. Read-outs that look alike come from different tables or passages of the source.
Assays:
[1] = tested on: human colorectal carcinoma cell line HT29; test: MTS cell viability assay, HT-29; type: cell-based
Excerpt: The comestible use of the fruit products and its potential anticancer properties prompted the current investigation as to whether the active constituents could be used to treat colorectal cancer. The robust MTS cell viability assay with the p53-mutant human colon HT-29 cell line served as an assay-guided screening tool for the purification of the active principles of the fruit extract (see further description in the Example section).
Erythroleukemia K562, human colon HT-29 and breast MCF-7 cancer cell lines were obtained from the American Type Culture Collection (Manassas, Va., USA). All cells were maintained in Dulbecco's modified Eagle's medium (DMEM) supplemented with 10% fetal bovine serum, penicillin (100 U ml^−1) and streptomycin (100 U ml^−1). Cells were incubated at 37° C. in a 5% CO2 humidified atmosphere.
Cells were seeded at a density of 1.5×10^4 cells/well on a 96-well plate. When the cells reached 60 to 70% confluency, the growth medium was aspirated and the wells were rinsed with pre-warmed PBS. Test compounds at various concentrations or 1% DMSO (vehicle control) were then added and the plates were incubated for 72 h. After incubation, 40 μL of a solution of CellTiter 96 Aqueous One Solution (Promega, Madison, Wis., USA) containing MTS [3-(4,5-dimethylthiazol-2-yl)-5-(3-carboxymethoxyphenyl)-2-(4-sulfophenyl)-2H-tetrazolium)] and an electron coupling reagent (phenazine ethosulfate) were added to each well with an auto-repeat pipetor. The plates were incubated for 3 hours during which time the reagent was bio-reduced into a colored formazan product by the intracellular dehydrogenase enzymes of metabolically active cells. The quantity of formazan produced is directly proportional to the number of living cells in the cultures. The absorbance (A) was measured at 490 nm (reference at 690 nm) on a PowerWave 200 microplate reader (Bio-Tek Instruments). The results were expressed as percent cell viability, calculated for each drug concentration using the formula:
% Viability=(A treated group/A control group)×100%.
(100% viability was represented by samples with DMSO vehicle control).
The half-maximal inhibitory concentration, IC50, values were obtained from the sigmoidal curve by plotting the percentage viability of cells against the drug concentration using Psi-Plot version 9, Poly Software International (Pearl River, N.Y., USA).

hepatic carcinoma = settings: especially in high concentrations; Molecular Medicine Reports 2:725-732, 2009; cited from earlier work
colon cell line LoVo = settings: Planta Medica 2010: 76:1672-1677; cited from earlier work
[2] = HT29, MTS cell viability, 72 h, average of two independent experiments in triplicate
[3] = HT-29, from dose-response curves (FIG. 4, FIG. 5), read-out: concentration inhibiting cell growth by 50% (IC50), molar basis

| Activity IC50 [1, 2] [µg/mL] | IC50 [1, 3] [µM] | IC50 ([1]; Homo sapiens, HT-29, HT29, MTS cell viability, 72 h, average of two independent experiments in triplicate, read-out: Activity IC50) [µg/mL] | IC50 ([1]; Homo sapiens, HT-29, from dose-response curves (FIG. 4, FIG. 5), read-out: concentration inhibiting cell growth by 50% (IC50), molar basis) [µM] | Structure (SMILES) | anti-proliferative activity against HT-29 (in words) ([1]; HT-29) | anti-proliferative activity against HT-29 (in words) ([1]; HT-29, listed as schisandrin) | apoptosis induction in hepatic carcinoma (in words) (hepatic carcinoma) | activity against LoVo (in words) (colon cell line LoVo) |
| --- | --- | --- | --- | --- | --- | --- | --- | --- |
| 300 | 716 | – | – | COc1cc2c(c(OC)c1OC)-c1c(cc3c(c1OC)OCO3)C[C@H](C)[C@](C)(O)C2 [Gomisin A, gomisin A] | – | – | – | – |
| >1000 | – | – | – | COc1cc2c(c(OC)c1OC)-c1c(cc(OC)c(OC)c1OC)C[C@](C)(O)[C@@H](C)C2 [Schisandrin, schisandrin] | devoid of detectable biological activity | does not show any activity; also recorded: inactive | – | – |
| 17 | 43 | – | – | COc1cc2c(c(OC)c1OC)-c1c(cc3c(c1OC)OCO3)C[C@H](C)[C@H](C)C2 [Gomisin N, gomisin N] | – | – | induces high apoptotic levels | do not find Gomisin N to be active |

Further lines, the compound ahead of its results:

| Structure (SMILES) | Activity IC50 [1, 2] [µg/mL] | IC50 [1, 3] [µM] | IC50 ([1]; Homo sapiens, HT-29, HT29, MTS cell viability, 72 h, average of two independent experiments in triplicate, read-out: Activity IC50) [µg/mL] | IC50 ([1]; Homo sapiens, HT-29, from dose-response curves (FIG. 4, FIG. 5), read-out: concentration inhibiting cell growth by 50% (IC50), molar basis) [µM] | anti-proliferative activity against HT-29 (in words) ([1]; HT-29) | anti-proliferative activity against HT-29 (in words) ([1]; HT-29, listed as schisandrin) | apoptosis induction in hepatic carcinoma (in words) (hepatic carcinoma) | activity against LoVo (in words) (colon cell line LoVo) |
| --- | --- | --- | --- | --- | --- | --- | --- | --- |
| C/C=C(/C)C(=O)Oc1c(OC)c(OC)cc2c1-c1c(cc(OC)c(OC)c1OC)C[C@](C)(O)[C@@H](C)C2 [Angeloylgomisin H, angeloylgomisin H] | 348 | 696 | – | – | moderate activity | – | – | – |
| COc1cc2c(c(OC)c1OC)-c1c(cc(OC)c(OC)c1OC)C[C@H](C)[C@@H](C)C2 [Deoxyschisandrin, deoxyschisandrin] | – | – | 140 | 336 | – | – | – | – |

Source: patent publication US20120052142A1, “BIOLOGICALLY ACTIVE COMPOSITIONS FROM Schisandra chinensis FOR TREATING COLORECTAL CANCER” (Dr. Chang Naturals, LLC, priority 2010, published 2012)
